Laboratory results taken from ChEMBL document CHEMBL3621149, “Cytotoxic labdane-type diterpenes from Hedychium longipetalum inhibiting production of nitric oxide” (Bioorg Med Chem Lett, 2015).
Converted amounts (≈) assume the structure as drawn. Peptide text beside a SMILES is read from it. * marks the point of attachment. Cbz = O=C(OCc1ccccc1)*

Assays:
Format in all cases: functional, cell-based
[1] = Cytotoxicity against human SGC7901 cells after 48 hrs by SRB assay; conditions: SGC-7901, 48 h
RAW264.7 = test: Inhibition of LPS and IFN-gamma-stimulated nitric oxide production in mouse RAW264.7 cells after 18 hrs by Griess method; conditions: RAW264.7, 18 h
HeLa = test: Cytotoxicity against human HeLa cells after 48 hrs by SRB assay

Row | Structure (SMILES) | IC50 [1] | IC50 (RAW264.7) | IC50 (HeLa)
1 | CC1(C)CCC[C@]2(C)[C@@H]3C(=CC(=O)[C@@H]12)CO[C@H]3C(=O)c1ccoc1 | > 25 µg/mL | 7.5 µg/mL (≈ 22.8 µM) | > 25 µg/mL
2 | C=C1[C@@H](O)[C@@H](O)[C@H]2C(C)(C)CCC[C@]2(C)[C@H]1/C=C/C1=CCOC1=O | > 25 µg/mL | 5.58 µg/mL (≈ 16.8 µM) | > 25 µg/mL
3 | C=C1C[C@@H](O)[C@H]2C(C)(C)CCC[C@]2(C)[C@H]1C/C=C1/CC(OC)OC1=O (stereo partly specified) | 8.74 µg/mL (≈ 25.1 µM) | 6.1 µg/mL (≈ 17.5 µM) | 11.3 µg/mL (≈ 32.5 µM)
4 | C=C1[C@@H](O)C[C@H]2C(C)(C)CCC[C@]2(C)[C@H]1/C=C/C1=CCOC1=O | 14.5 µg/mL (≈ 45.9 µM) | 6.52 µg/mL (≈ 20.6 µM) | 14.8 µg/mL (≈ 46.9 µM)
5 | C=C1[C@@H](O)C[C@H]2C(C)(C)CCC[C@]2(C)[C@H]1/C=C/C1=CC(=O)OC1O (stereo partly specified) [HEDYFORRESTIN C] | 7.29 µg/mL (≈ 21.9 µM) | 2.77 µg/mL (≈ 8.33 µM) | 9.21 µg/mL (≈ 27.7 µM)
6 | CC(C)C[C@@H](C=O)NC(=O)[C@H](CC(C)C)NC(=O)[C@H](CC(C)C)NC(=O)OCc1ccccc1 [MG-132] (Cbz-Leu-Leu-Leu-aldehyde) | – | 0.08 µg/mL (≈ 0.168 µM) | –
7 | CC(=O)O[C@H]1C(=O)[C@@]2(C)[C@H]([C@H](OC(=O)c3ccccc3)[C@]3(O)C[C@H](OC(=O)[C@H](O)[C@@H](NC(=O)c4ccccc4)c4ccccc4)C(C)=C1C3(C)C)[C@]1(OC(C)=O)CO[C@@H]1C[C@@H]2O [PACLITAXEL] | 0.2 µg/mL (≈ 0.234 µM) | – | 0.1 µg/mL (≈ 0.117 µM)
8 | C=C1C[C@@H](O)[C@H]2C(C)(C)CCC[C@]2(C)[C@H]1/C=C/c1ccoc1 [YUNNACORONARIN A] | 6.21 µg/mL (≈ 20.7 µM) | 0.56 µg/mL (≈ 1.86 µM) | 6.58 µg/mL (≈ 21.9 µM)
